Test results reported in publication PMC4963197, “Phosphorylation acts positively and negatively to regulate MRTF-A subcellular localisation and activity” (eLife, 2016).
Where two headings read alike, the source gives them in different places. Ends that are not written are not given here.

Legend:
MRTF-A [1] = test: MRTF-A subcellular localisation by immunofluorescence; format: cell-based, mouse; settings: for effect of inhibitor on TPA block of serum-induced MRTF-A nuclear accumulation / inhibition of TPA-induced MRTF-A nuclear accumulation: U0126 10 μM, Gö6976 2 μM, Gö6983 6 μM; for effect of inhibitor on TPA block of serum-induced MRTF-A nuclear accumulation: TPA then 15% FCS; for inhibition of TPA-induced MRTF-A nuclear accumulation: pretreated 20 min
Description: (§1) NIH3T3 cells were cultured in DMEM, 10% FCS.
(§2) For immunofluorescence ([Vartiainen et al., 2007]), NIH3T3 cells were transfected in six-well plates (150000 /well), with 50 ng pEF-Flag-MRTF-PK derivatives, 100 ng pEF-MRTF-A derivatives, 50 ng MEK-R4F, 100 ng RafER, using Lipofectamine 2000 (Invitrogen).
(§3) Data was processed using GraphPad Prism version 5.03.

MRTF-A [2] = test: MRTF-A phosphorylation (SDS-PAGE mobility, immunoblot); format: cell-based, mouse; settings: for inhibition of MRTF-A phosphorylation by PKC inhibitor: inhibitor pretreatment 20 min, 100 ng/ml TPA 30 min
Description: as §1, §3

MRTF-A [3] = test: Site-specific MRTF-A phosphorylation (phosphospecific antibody immunoblot); format: cell-based, mouse; settings: for phosphorylation at analysed phospho-sites: 2 μM CD or 100 ng/ml TPA, sites analysed with phosphospecific antibodies; for S33 phosphorylation / S98 phosphorylation: 100 ng/ml TPA, U0126 10 μM
Description: as §1, §3

[4] = tested on: F-actin assembly in NIH3T3 cells; test: F- and G-actin quantitation (F:G ratio); format: cell-based, mouse; settings: n = 3; for effect of inhibitor on TPA inhibition of F-actin assembly: inhibitor 20 min, TPA 20 min, 15% FCS 20 min
Description: Cells were processed as described ([Vartiainen et al., 2007]) with modifications. G- and F-actin were detected using 0.3 μM DN'ase I-Alexa Fluor 488 conjugate and 5 U/ml Alexa Fluor 647-phalloidin (Molecular Probes). After three washes in PBS, cells were analysed using the Cellomics ArrayScan. For each experiment, six technical replicates were performed. Statistical significance of alterations in F:G ratio was estimated by one-way ANOVA (Dunnett's multiple comparison test).

ERK = ERK activation immunoblot; format: cell-based; settings: inhibitor pretreatment 20 min, 100 ng/ml TPA 30 min
Description: as §1, §3

PKC isoforms = settings: 2 μM Gö6976; ref Martiny-Baron et al., 1993; cited from earlier work
Description: as §1

MRTF-A [5] = settings: LatB; ref Vartiainen et al., 2007; cited from earlier work
[6] = tested on: RevΔ MRTF-A GFP derivatives (Crm1-dependent NES); test: RevΔGFP nuclear export assay; format: cell-based; settings: 50 nM LMB
MRTF-A(2–204)-PK = MRTF-A(2–204)-PK subcellular localisation by immunofluorescence; format: cell-based, mouse; settings: TPA
Description: as §1, §2, §3

RhoA = settings: 100 ng/ml TPA, then 15% FCS
Description: RhoGTP pull-downs used Rho activation assay (Millipore) with modifications. Cells were grown in 15 cm dishes, washed twice in ice-cold TBS, scraped in 400 μl 2x lysis buffer with 16% glycerol, made to 800 μl with water, and clarified. 20 μl was retained as input, and the remainder incubated with 20 μl GST-Rhotekin for 45 min at 4°C. After three 1 ml washes with Lysis buffer, proteins were eluted with SDS loading buffer and Rho recovery assessed by immunoblotting.

MRTF-SRF target genes = settings: 100 ng/ml TPA, 0.25-3 hr; n = 2
MLC2 = MLC2 S19; 100 ng/ml TPA, then 15% FCS
MEK = settings: 10 μM U0126; ref Bain et al., 2007; cited from earlier work
Description: as §1

G-actin = molecular target: T1, G-actin (Oryctolagus cuniculus, UniProt P68135); test: Size exclusion chromatography of G-actin / Spacer1-RPEL2 peptide complexes; format: binding; settings: SEC, Spacer1-RPEL2 peptides; for apparent molecular mass of G-actin complex: Superdex 200, 20 mM Tris (pH 8), 100 mM NaCl; for apparent stoichiometry of G-actin binding: Superdex 200, pH 8
T1 construct: Actin was prepared as described ([Mouilleron et al., 2008]); from tissue; host or cells: rabbit skeletal muscle (own knowledge of the cited method)
Description: Peptides were synthesised by the London Research Institute (LRI) peptide synthesis platform. MRTF-A(94–142), FAM-MRTF-A(62–104) and FAM-MRTF-A(67–98) derivatives are as in Figure 4—figure supplement 2A. Phosphorylated 10–12 mer peptides for immunizations were centred on the phosphoacceptor site (see Table 1). Actin was prepared as described ([Mouilleron et al., 2008]).
Preparation of LatB-actin and fluorescence polarisation anisotropy assay were described ([Guettler et al., 2008]). Size exclusion chromatography was on Superdex 200 column equilibrated in 20 mM Tris (pH 8), 100 mM NaCl, 3 mM MgCl2, 0.2 mM EGTA, 0.3 mM TCEP [(tris(2-carboxyethyl)phosphine)], 5% (v/v) glycerol, calibrated with globular proteins of known molecular weight.

[7] = NIH3T3 cells, 100 ng/ml TPA, 2 μM CD or 50 nM LMB
[8] = 100 ng/ml TPA 20 min, then 15% FCS 20 min

## CC/C(=C(\c1ccc(O)cc1)c1ccc(OCCN(C)C)cc1)c1ccccc1 [4-hydroxytamoxifen]
MRTF-A [1]; Raf-ER cells, 1 μM 4OHT 20 min, then 15% FCS 20 min
  block of serum-induced nuclear accumulation by pre-treatment: Only pre-treatment with TPA significantly blocked serum-induced nuclear accumulation

## C=C1[C@@H](C)[C@H]2[C@H](Cc3ccccc3)NC(=O)[C@]23[C@H](OC(C)=O)/C=C/[C@@](C)(O)C(=O)[C@@H](C)C/C=C/[C@H]3[C@@H]1O [CD, cytochalasin D]
MRTF-A [2]; 2 μM CD
  phosphorylation of MRTF-A/MC fusion protein: exhibited CD-induced phosphorylation similar to that seen in MRTF-A
MRTF-A [2]; 2 μM CD with and without 10 μM U0126
  ERK dependence of CD-induced MRTF-A phosphorylation: this occurred independently of ERK
MRTF-A [2]; 15% FCS or 2 μM CD, 10 μM U0126
  phosphorylation of MRTF-A B2A (NLS mutant): could be induced by serum, but not CD
MRTF-A [2]; [7]
  MRTF-A phosphorylation: also induced MRTF-A phosphorylation
MRTF-A [3]
  phosphorylation at analysed phospho-sites: induced a gradual accumulation at all analysed sites

## Cn1c2ccccc2c2c3c(c4c5ccccc5n(CCC#N)c4c21)CNC3=O [Gö6976]
MRTF-A [2]
  inhibition of MRTF-A phosphorylation by PKC inhibitor: only the latter completely inhibited ERK activation and MRTF-A phosphorylation
MRTF-A [1]
  effect of inhibitor on TPA block of serum-induced MRTF-A nuclear accumulation: insensitive to U0126 and Gö6976
MRTF-A [1]; 100 ng/ml TPA
  inhibition of TPA-induced MRTF-A nuclear accumulation: sensitive to both the conventional-PKC inhibitor Gö6976 and the pan-PKC inhibitor Gö6983
[4]
  effect of inhibitor on TPA inhibition of F-actin assembly: not by U0126 or Gö6976
ERK
  inhibition of TPA-induced ERK activation: only the latter completely inhibited ERK activation
PKC isoforms
  PKC isoform block: insufficient to block non-novel PKC isoforms

## COc1ccc2c(c1)c(C1=C(c3c[nH]c4ccccc34)C(=O)NC1=O)cn2CCCN(C)C [Gö6983]
MRTF-A [2]
  inhibition of MRTF-A phosphorylation by PKC inhibitor: completely inhibited ERK activation and MRTF-A phosphorylation
MRTF-A [1]
  effect of inhibitor on TPA block of serum-induced MRTF-A nuclear accumulation: relieved by Gö6983
MRTF-A [1]; 100 ng/ml TPA
  inhibition of TPA-induced MRTF-A nuclear accumulation: sensitive to both the conventional-PKC inhibitor Gö6976 and the pan-PKC inhibitor Gö6983
[4]
  effect of inhibitor on TPA inhibition of F-actin assembly: relieved by Gö6983
ERK
  inhibition of TPA-induced ERK activation: completely inhibited ERK activation

## C/C1=C/C(=O)O[C@@H]2C[C@@H](CC[C@H](C)/C=C\CC1)O[C@@](O)([C@@H]1CSC(=O)N1)C2 [LatB, Latrunculin B]
MRTF-A [2]; NIH3T3, 15% FCS 30 min, then 1 μM LatB
  return of serum-induced MRTF-A phosphorylation: rapid return of MRTF-A phosphorylation to prestimulation levels
MRTF-A [5]
  cytoplasmic localisation of MRTF-A: restore cytoplasmic localisation of MRTF-A

## CCC(=C/[C@H](C)C/C=C/C(C)=C/[C@@H](C)C(=O)[C@@H](C)[C@H](O)[C@@H](C)C/C(C)=C/C(=O)O)/C=C/[C@@H]1OC(=O)C=C[C@@H]1C [Leptomycin B]
MRTF-A [2]; [7]
  MRTF-A phosphorylation: did not induce phosphorylation unless the cells were simultaneously stimulated with CD or FCS
[6]
  nuclear localisation of RevΔMRTF-A derivatives: Nuclear localisation could be restored by serum stimulation, or by treatment with Leptomycin B (LMB)
[6]; listed as LMB
  nuclear localisation of RevΔMRTF-A derivatives: both proteins accumulated in the nucleus upon LMB treatment

## CCCCCCCCCCCCCC(=O)O[C@@H]1[C@@H](C)[C@@]2(O)[C@@H](C=C(CO)C[C@]3(O)C(=O)C(C)=C[C@@H]23)[C@H]2C(C)(C)[C@]12OC(C)=O [TPA]
MRTF-A [2]
  MRTF-A phosphorylation: also induced MRTF-A phosphorylation
MRTF-A [3]
  S33 phosphorylation: could be slightly increased upon serum or TPA stimulation
  S98 phosphorylation: by TPA in a U0126-sensitive fashion
  phosphorylation at analysed phospho-sites: induced a gradual accumulation at all analysed sites
MRTF-A [1]; [8]
  inhibition of serum-induced MRTF-A nuclear accumulation by TPA pretreatment: effectively blocked MRTF-A nuclear accumulation upon subsequent serum stimulation
MRTF-A [1]; 100 ng/ml TPA, 20 min
  proportion of cells with predominantly nuclear MRTF-A: substantially increased the proportion of cells with predominantly nuclear MRTF-A
MRTF-A(2–204)-PK
  nuclear accumulation of MRTF-A(2–204)-PK: promoted nuclear accumulation of MRTF-A(2–204)-PK
[4]; [8]
  serum-induced F-actin assembly: inhibited serum-induced F-actin assembly
RhoA
  serum-induced accumulation of Rho.GTP: inhibited serum-induced accumulation of Rho.GTP
MRTF-SRF target genes
  induction of transcription of MRTF-SRF target genes: induced transcription of MRTF-SRF target genes in an ERK-dependent manner
MLC2
  serum-induced phosphorylation of MLC2: inhibited serum-induced accumulation of Rho.GTP, and phosphorylation of MLC2, independently of ERK but in a PKC-dependent manner

## N#CC(=C(/N)Sc1ccccc1N)/C(C#N)=C(/N)Sc1ccccc1N [U0126]
MRTF-A [3]
  S33 phosphorylation: Induced S33 phosphorylation was U0126-sensitive
  S98 phosphorylation: U0126-sensitive
MRTF-A [1]
  effect of inhibitor on TPA block of serum-induced MRTF-A nuclear accumulation: insensitive to U0126 and Gö6976
[4]
  effect of inhibitor on TPA inhibition of F-actin assembly: not by U0126 or Gö6976
MEK
  MEK inhibition and selectivity: sufficient to inhibit MEK activation without substantial effects on other kinases

## S1-R2 WT: Spacer1-RPEL2 peptide (LKLKRARLADDLNEKIAQRPGPMELVEKNILPVESSLKEAIIVGQVNYP; UniProt Q8K4J6 94-142, looked up, fragment)
G-actin
  apparent molecular mass of G-actin complex: 70.9 kDa
  apparent stoichiometry of G-actin binding: 1.5 actins

## S1-R2 pS98: Spacer1-RPEL2 peptide phosphorylated at S98 (LKLKRARLADDLNEKIAQRPGPMELVEKNILPVESSLKEAIIVGQVNYP; also: phosphorylated at S98, position not located in chain; UniProt Q8K4J6 94-142, looked up, fragment)
G-actin
  apparent molecular mass of G-actin complex: 64.1 kDa
  apparent stoichiometry of G-actin binding: 1.4 actins
